Experimental data: patent US20250034216A1, “STEREOSELECTIVE COVALENT LIGANDS FOR ONCOGENIC AND IMMUNOLOGICAL PROTEINS” (The Scripps Research Institute, priority 2021, published 2025)

Assays:
[1] = biological target: T1, DENND2B_C804 (Homo sapiens, UniProt P78524); assay: IA-DTB cysteine engagement; assay type: binding; conditions: 22Rv1 cells, 20 μM probe, 1 h, relative to DMSO
T1 construct: endogenous in cells; host or cells: 22Rv1
T1 sequence (P78524 1-1137): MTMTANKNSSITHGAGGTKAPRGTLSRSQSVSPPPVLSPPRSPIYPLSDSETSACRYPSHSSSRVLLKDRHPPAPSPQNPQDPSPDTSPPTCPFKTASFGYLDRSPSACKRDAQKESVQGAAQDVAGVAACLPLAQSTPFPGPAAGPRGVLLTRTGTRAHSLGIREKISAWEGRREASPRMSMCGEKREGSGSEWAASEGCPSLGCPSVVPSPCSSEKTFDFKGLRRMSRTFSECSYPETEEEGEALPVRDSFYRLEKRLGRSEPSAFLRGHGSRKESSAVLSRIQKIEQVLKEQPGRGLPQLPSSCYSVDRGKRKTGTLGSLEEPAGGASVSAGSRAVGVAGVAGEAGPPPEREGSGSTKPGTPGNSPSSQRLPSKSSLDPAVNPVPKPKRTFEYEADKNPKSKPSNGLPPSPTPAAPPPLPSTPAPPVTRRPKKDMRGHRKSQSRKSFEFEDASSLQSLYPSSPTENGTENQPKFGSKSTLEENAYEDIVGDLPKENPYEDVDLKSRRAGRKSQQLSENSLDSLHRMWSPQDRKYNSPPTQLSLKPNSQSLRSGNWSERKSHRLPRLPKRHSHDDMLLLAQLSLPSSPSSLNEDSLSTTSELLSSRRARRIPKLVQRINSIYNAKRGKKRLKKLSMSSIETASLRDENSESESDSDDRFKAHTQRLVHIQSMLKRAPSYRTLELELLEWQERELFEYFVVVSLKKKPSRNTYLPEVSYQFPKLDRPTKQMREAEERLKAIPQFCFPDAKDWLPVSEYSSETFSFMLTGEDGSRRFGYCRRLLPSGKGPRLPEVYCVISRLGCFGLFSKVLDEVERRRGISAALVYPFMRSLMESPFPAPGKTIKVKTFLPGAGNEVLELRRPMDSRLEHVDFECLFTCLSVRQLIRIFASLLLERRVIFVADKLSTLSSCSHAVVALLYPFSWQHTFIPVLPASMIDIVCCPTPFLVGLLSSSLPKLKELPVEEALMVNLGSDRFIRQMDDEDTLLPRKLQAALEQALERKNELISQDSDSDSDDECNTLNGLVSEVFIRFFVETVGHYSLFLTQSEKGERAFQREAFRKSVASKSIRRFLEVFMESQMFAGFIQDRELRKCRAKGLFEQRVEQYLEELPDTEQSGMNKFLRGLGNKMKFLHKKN
Procedure, shortened: (§1)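 Read-out is TMT-based cysteine engagement, expressed as each reporter ion intensity divided by the average of the DMSO channels. Before that, probe-treated cell lysates were capped with IA-DTB, digested, enriched on streptavidin and TMT-tagged. PSMs with DMSO summed intensity <10,000 or DMSO CV >0.5 were excluded.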

[2] = biological target: T2, PDE3B_C311 (Homo sapiens, UniProt Q13370); assay: IA-DTB cysteine engagement; assay type: binding; conditions: 22Rv1 cells, 20 μM probe, 1 h, relative to DMSO
T2 construct: endogenous in cells; host or cells: 22Rv1
Procedure, shortened: as §1

T2 sequence (Q13370 whole entry): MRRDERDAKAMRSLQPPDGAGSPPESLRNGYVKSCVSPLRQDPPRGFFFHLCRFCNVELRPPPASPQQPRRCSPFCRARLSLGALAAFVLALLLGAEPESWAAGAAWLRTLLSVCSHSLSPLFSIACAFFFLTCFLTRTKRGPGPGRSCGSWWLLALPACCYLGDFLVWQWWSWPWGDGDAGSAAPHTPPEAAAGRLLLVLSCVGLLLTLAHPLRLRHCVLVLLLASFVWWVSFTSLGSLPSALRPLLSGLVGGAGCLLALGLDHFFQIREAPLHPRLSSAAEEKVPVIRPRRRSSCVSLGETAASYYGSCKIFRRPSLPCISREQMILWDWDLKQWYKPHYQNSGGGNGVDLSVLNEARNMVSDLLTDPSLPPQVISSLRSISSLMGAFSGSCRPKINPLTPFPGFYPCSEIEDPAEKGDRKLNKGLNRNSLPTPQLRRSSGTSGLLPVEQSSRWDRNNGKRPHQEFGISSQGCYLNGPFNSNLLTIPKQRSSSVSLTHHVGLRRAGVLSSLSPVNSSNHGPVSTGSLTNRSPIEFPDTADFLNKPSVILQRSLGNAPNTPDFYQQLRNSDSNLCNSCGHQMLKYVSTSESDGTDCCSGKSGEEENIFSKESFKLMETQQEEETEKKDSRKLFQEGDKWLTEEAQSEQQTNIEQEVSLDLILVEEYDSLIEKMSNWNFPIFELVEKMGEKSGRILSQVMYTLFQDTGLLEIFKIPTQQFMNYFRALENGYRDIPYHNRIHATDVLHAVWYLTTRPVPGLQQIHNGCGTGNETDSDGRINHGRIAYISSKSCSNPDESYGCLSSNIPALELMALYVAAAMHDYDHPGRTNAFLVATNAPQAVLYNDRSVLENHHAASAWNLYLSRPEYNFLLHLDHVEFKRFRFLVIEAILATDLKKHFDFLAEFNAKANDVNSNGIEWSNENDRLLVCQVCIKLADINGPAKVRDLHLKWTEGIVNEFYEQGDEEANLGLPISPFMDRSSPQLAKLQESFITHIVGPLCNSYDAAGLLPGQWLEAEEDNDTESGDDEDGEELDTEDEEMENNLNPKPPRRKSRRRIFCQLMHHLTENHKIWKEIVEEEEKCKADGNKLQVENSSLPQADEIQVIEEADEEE

Row | % engagement DENND2B_C804 [1] | % engagement PDE3B_C311 [2] | Structure (SMILES)
1 | 29.25% | 57.5% | C=CC(=O)N1C[C@@H](c2ccc(Br)cc2)[C@H]1C(=O)Nc1cccc2cccnc12 [MY-1A, (2S,3R)-1-acryloyl-3-(4-bromophenyl)-N-(quinolin-8-yl)azetidine-2-carboxamide]
2 | 80.25% | 58% | C=CC(=O)N1C[C@H](c2ccc(Br)cc2)[C@@H]1C(=O)Nc1cccc2cccnc12 [MY-1B, (2R,3S)-1-acryloyl-3-(4-bromophenyl)-N-(quinolin-8-yl)azetidine-2-carboxamide]
3 | −5.75% | 75.5% | C=CC(=O)N1C[C@H](c2ccc(Br)cc2)[C@H]1C(=O)Nc1cccc2cccnc12 [MY-3B, (2S,3S)-1-acryloyl-3-(4-bromophenyl)-N-(quinolin-8-yl)azetidine-2-carboxamide]
4 | −5.25% | 49% | C=CC(=O)N1C[C@H](c2ccc(Br)cc2)[C@H]1C(=O)Nc1cccc2cccnc12 [MY-3A, (2S,3S)-1-acryloyl-3-(4-bromophenyl)-N-(quinolin-8-yl)azetidine-2-carboxamide]
